Assay results published in patent US5288709A, “Erythromycin derivatives” (priority 1991, dated 1994).
Values after ≈ are worked out from the molar mass of the structure shown. Read-outs that look alike come from different tables or passages of the source.

Tests used:
Experiment in all cases: In-vitro antimicrobial activity primary screen (agar dilution MIC)
Assay type in all cases: cell-based
[1] = test system: Pseudomonas aeruginosa K799/61; details: Pseudomonas aeruginosa K799/61, BHI agar, 20-24 h
Description: (§1) The antimicrobial spectra of several of the compounds of the present invention were tested as described below.
(§2) Twelve petri dishes containing successive aqueous dilutions of the test compounds, mixed with 10 mL of sterilized Brain Heart Infusion (BHI) agar (Difco 0418-01-5), were prepared. Each plate was inoculated with 1:100 (or 1:10 for slow growing strains (primarily Micrococcus and Streptococcus) dilutions of up to 32 different microorganisms, using a Steers replicator block. The inoculated plates were incubated at 35 37° C. for 20-24 hours. In addition, a control plate, using BHI agar containing no test compound, was prepared and incubated at the beginning and the end of each test.
(§3) An additional plate containing a compound having known susceptibility patterns for the organisms being tested and belonging to the same antibiotic class as the test compounds was also prepared and incubated as a further control, as well as to provide test-to test comparability.
(§4) After incubation, each plate was read. The MIC (minimum inhibitory concentration) is defined as the lowest concentration of test compound yielding no growth, a slight haze, or sparsely isolated colonies on the inoculum spot as compared to the growth control containing no test compound.

[2] = test system: Staphylococcus aureus ATCC 6538P; details: BHI agar, 20-24 h
Description: as §1, §2, §3, §4

Escherichia coli DC-2 = details: Escherichia coli DC-2, BHI agar, 20-24 h
Description: as §1, §2, §3, §4

Acinetobacter SP CMX 669 = details: Acinetobacter SP CMX 669, BHI agar, 20-24 h
Description: as §1, §2, §3, §4

Escherichia coli SS = details: BHI agar, 20-24 h
Description: as §1, §2, §3, §4

Pseudomonas cepacia 2961 = details: BHI agar, 20-24 h
Description: as §1, §2, §3, §4

[3] = test system: Providencia stuartii CMX 640
Description: as §1, §2, §3, §4

Escherichia coli H560 = details: Escherichia coli H560, BHI agar, 20-24 h
Description: as §1, §2, §3, §4

Staphylococcus aureus 45 = details: BHI agar, 20-24 h
Description: as §1, §2, §3, §4

[4] = test system: Pseudomonas aeruginosa BMH10; details: BHI agar, 20-24 h
Description: as §1, §2, §3, §4

[5] = test system: Streptococcus pyrogenes EES61; details: BHI agar, 20-24 h
Description: as §1, §2, §3, §4

Escherichia coli JUHL = details: Escherichia coli JUHL, BHI agar, 20-24 h
Description: as §1, §2, §3, §4

[6] = test system: Staphylococcus aureus NCTC 10649; details: NCTC10649, BHI agar, 20-24 h, read-out: MIC
Description: as §1, §2, §3, §4

[7] = test system: Micrococcus luteus ATCC 4698; details: BHI agar, 20-24 h
Description: as §1, §2, §3, §4

[8] = test system: Staphylococcus aureus A5177
Description: as §1, §2, §3, §4

[9] = test system: Pseudomonas aeruginosa A5007
Description: as §1, §2, §3, §4

[10] = test system: Streptococcus bovis A5169; details: BHI agar, 20-24 h
Description: as §1, §2, §3, §4

[11] = test system: Staphylococcus aureus 642A; details: BHI agar, 20-24 h, read-out: MIC
Description: as §1, §2, §3, §4

[12] = test system: Streptococcus pyrogenes 2548 INDUC; details: BHI agar, 20-24 h
Description: as §1, §2, §3, §4

[13] = test system: Staphylococcus aureus 45 RAR2; details: BHI agar, 20-24 h
Description: as §1, §2, §3, §4

[14] = test system: Staphylococcus epidermidis 3519; details: BHI agar, 20-24 h
Description: as §1, §2, §3, §4

[15] = test system: Enterobacter aerogenes ATCC 13048
Description: as §1, §2, §3, §4

[16] = test system: Enterococcus faecium ATCC 8043
Description: as §1, §2, §3, §4

[17] = test system: Streptococcus agalactiae CMX 508; details: BHI agar, 20-24 h
Description: as §1, §2, §3, §4

[18] = test system: Micrococcus luteus ATCC 9341; details: 20-24 h
Description: as §1, §2, §3, §4

[19] = test system: Pseudomonas aeruginosa K799/WT
Description: as §1, §2, §3, §4

[20] = test system: Staphylococcus aureus CMX 553; details: BHI agar, 20-24 h
Description: as §1, §2
as §3, with “comparability. Erythromycin A was used for this purpose.” for “comparability.”
as §4

[21] = test system: Klebsiella pneumoniae ATCC 8045
Description: as §1, §2, §3, §4

[22] = test system: Staphylococcus aureus CMX 686B; details: BHI agar, 20-24 h
Description: as §1, §2
as §3, with “comparability. Erythromycin A was used for this purpose.” for “comparability.”
as §4

[23] = test system: Staphylococcus aureus CMX 503A; details: BHI agar, 20-24 h
Description: as §1, §2
as §3, with “comparability. Erythromycin A was used for this purpose.” for “comparability.”
as §4

[24] = Staphylococcus aureus, ATCC6538P, 24 h
[25] = Micrococcus luteus, ATCC4698, 24 h
[26] = Staphylococcus aureus, 45RAR2, 24 h
[27] = Enterococcus faecium, ATCC8043, 24 h
[28] = Streptococcus agalactiae, CMX508, 24 h
[29] = ATCC9341, BHI agar, read-out: MIC
[30] = Staphylococcus aureus, CMX553, 24 h, read-out: MIC

## CC[C@H]1OC(=O)[C@H](C)[C@@H](O[C@H]2C[C@@](C)(OC)[C@@H](NC(N)=O)[C@H](C)O2)[C@H](C)[C@@H](O[C@@H]2O[C@H](C)C[C@H](N(C)C)[C@H]2O)[C@](C)(O)C[C@@H](C)[C@@H]2O[C@@]1(C)C(=O)[C@H]2C [Example 32, (4"S,9S)-4"-[(aminocarbonyl)amino]-9-deoxo-4",11,12-trideoxy-9,12-epoxy-11-oxoerythromycin A]
[1]; read-out: MIC
  MIC: 0.78 µg/mL (≈ 1.03 µM)
[2]; [24]
  MIC: 0.1 µg/mL (≈ 0.132 µM)
Escherichia coli DC-2; DC2, read-out: MIC
  MIC: 100 µg/mL (≈ 132 µM)
Acinetobacter SP CMX 669; SPCMX669, read-out: MIC
  MIC: 100 µg/mL (≈ 132 µM)
Escherichia coli SS; Escherichia coli, 24 h
  MIC: 0.2 µg/mL (≈ 0.264 µM)
Pseudomonas cepacia 2961; Burkholderia cepacia, read-out: MIC
  MIC: > 100 µg/mL
[3]; CMX640, Providencia stuartii CMX 640, BHI agar, 20-24 h, read-out: MIC
  MIC: > 100 µg/mL
Escherichia coli H560; read-out: MIC
  MIC: 100 µg/mL (≈ 132 µM)
Staphylococcus aureus 45; read-out: MIC
  MIC: 0.2 µg/mL (≈ 0.264 µM)
[4]; read-out: MIC
  MIC: 100 µg/mL (≈ 132 µM)
[5]; read-out: MIC
  MIC: 0.02 µg/mL (≈ 0.0264 µM)
Escherichia coli JUHL; read-out: MIC
  MIC: 100 µg/mL (≈ 132 µM)
[6]
  MIC: 0.1 µg/mL (≈ 0.132 µM)
[7]; [25]
  MIC: 0.2 µg/mL (≈ 0.264 µM)
[8]; Staphylococcus aureus, A5177, 24 h
  MIC: > 100 µg/mL
[9]; Pseudomonas aeruginosa A5007, BHI agar, 20-24 h, read-out: MIC
  MIC: > 100 µg/mL
[10]; Streptococcus equinus, A5169, 24 h
  MIC: 0.05 µg/mL (≈ 0.066 µM)
[11]
  MIC: 0.1 µg/mL (≈ 0.132 µM)
[12]; read-out: MIC
  MIC: 0.78 µg/mL (≈ 1.03 µM)
[13]; [26]
  MIC: 0.39 µg/mL (≈ 0.515 µM)
[14]; read-out: MIC
  MIC: 0.2 µg/mL (≈ 0.264 µM)
[15]; Klebsiella aerogenes, ATCC13048, Enterobacter aerogenes ATCC 13048, BHI agar, 20-24 h, read-out: MIC
  MIC: 100 µg/mL (≈ 132 µM)
[16]; [27]
  MIC: 0.2 µg/mL (≈ 0.264 µM)
[17]; [28]
  MIC: 0.05 µg/mL (≈ 0.066 µM)
[18]; [29]
  MIC: 0.05 µg/mL (≈ 0.066 µM)
[19]; Pseudomonas aeruginosa, K799/WT, 24 h, Pseudomonas aeruginosa K799/WT, BHI agar, 20-24 h
  MIC: 50 µg/mL (≈ 66 µM)
[20]; [30]
  MIC: 0.2 µg/mL (≈ 0.264 µM)

## CC[C@H]1OC(=O)[C@H](C)[C@@H](O[C@H]2C[C@@](C)(OC)[C@@H](N)[C@H](C)O2)[C@H](C)[C@@H](O[C@@H]2O[C@H](C)C[C@H](N(C)C)[C@H]2O)[C@](C)(O)C[C@@H](C)[C@@H]2O[C@@]1(C)C(=O)[C@H]2C [Example 14, (4"S,9S)-4"-Amino-9-deoxo-4",11,12-trideoxy-9,12-epoxy-11-oxoerythromycin A]
[1]; Pseudomonas aeruginosa, K799/61, 24 h
  MIC: 1.56 µg/mL (≈ 2.18 µM)
[2]; [24]
  MIC: 0.39 µg/mL (≈ 0.546 µM)
Escherichia coli DC-2; Escherichia coli, DC2, 24 h
  MIC: 25 µg/mL (≈ 35 µM)
Acinetobacter SP CMX 669; Acinetobacter, SPCMX669, 24 h
  MIC: 12.5 µg/mL (≈ 17.5 µM)
Escherichia coli SS; Escherichia coli, 24 h
  MIC: 0.2 µg/mL (≈ 0.28 µM)
Pseudomonas cepacia 2961; Burkholderia cepacia, 2961, 24 h
  MIC: > 100 µg/mL
[3]; Providencia stuartii, CMX640, 24 h
  MIC: > 100 µg/mL
Escherichia coli H560; Escherichia coli, H560, 24 h
  MIC: 12.5 µg/mL (≈ 17.5 µM)
Staphylococcus aureus 45; read-out: MIC
  MIC: 0.39 µg/mL (≈ 0.546 µM)
[4]; Pseudomonas aeruginosa, BMH10, 24 h
  MIC: 50 µg/mL (≈ 69.9 µM)
[21]; Klebsiella pneumoniae, ATCC8045, 24 h
  MIC: 100 µg/mL (≈ 140 µM)
[5]; Streptococcus, EES61, 24 h
  MIC: 0.05 µg/mL (≈ 0.0699 µM)
Escherichia coli JUHL; Escherichia coli, 24 h
  MIC: 25 µg/mL (≈ 35 µM)
[7]; [25]
  MIC: 0.1 µg/mL (≈ 0.14 µM)
[8]; Staphylococcus aureus, A5177, 24 h, Staphylococcus aureus A5177, BHI agar, 20-24 h
  MIC: 3.1 µg/mL (≈ 4.34 µM)
[9]; Pseudomonas aeruginosa, A5007, 24 h
  MIC: > 100 µg/mL
[10]; Streptococcus equinus, read-out: MIC
  MIC: 0.1 µg/mL (≈ 0.14 µM)
[12]; Streptococcus, 2548INDUC, 24 h
  MIC: 3.1 µg/mL (≈ 4.34 µM)
[13]; [26]
  MIC: 0.39 µg/mL (≈ 0.546 µM)
[14]; Staphylococcus epidermidis, 3519, 24 h
  MIC: 0.39 µg/mL (≈ 0.546 µM)
[15]; Klebsiella aerogenes, ATCC13048, 24 h
  MIC: > 100 µg/mL
[16]; [27]
  MIC: 0.1 µg/mL (≈ 0.14 µM)
[17]; [28]
  MIC: 0.05 µg/mL (≈ 0.0699 µM)
[18]; [29]
  MIC: 0.05 µg/mL (≈ 0.0699 µM)
[19]; Pseudomonas aeruginosa, K799/WT, 24 h
  MIC: > 100 µg/mL
[20]; [30]
  MIC: 0.2 µg/mL (≈ 0.28 µM)
[22]; CMX686B, read-out: MIC
  MIC: 0.39 µg/mL (≈ 0.546 µM)
[23]; Staphylococcus aureus, CMX503A, 24 h, read-out: MIC
  MIC: 0.39 µg/mL (≈ 0.546 µM)

## CC[C@H]1OC(=O)[C@H](C)[C@@H](O[C@H]2C[C@@](C)(OC)[C@@H](O)[C@H](C)O2)[C@H](C)[C@@H](O[C@@H]2O[C@H](C)C[C@H](N(C)C)[C@H]2O)[C@](C)(O)C[C@@H](C)[C@@H]2O[C@@]1(C)C(=NO)[C@H]2C [Example 18, (9S)-9-Deoxo-11,12-dideoxy-9,12-epoxy-11-hydroxyiminoerythromycin A]
[1]
  MIC: 6.2 microgram/mL
[2]
  MIC: 0.2 microgram/mL
Escherichia coli DC-2
  MIC: > 100 microgram/mL
Acinetobacter SP CMX 669
  MIC: > 100 microgram/mL
Escherichia coli SS
  MIC: 1.56 microgram/mL
Pseudomonas cepacia 2961
  MIC: > 100 microgram/mL
[3]; Providencia stuartii CMX 640, BHI agar, 20-24 h
  MIC: > 100 microgram/mL
Escherichia coli H560
  MIC: > 100 microgram/mL
Staphylococcus aureus 45
  MIC: 0.2 microgram/mL
[4]
  MIC: > 100 microgram/mL
[21]; Klebsiella pneumoniae ATCC 8045, BHI agar, 20-24 h
  MIC: > 100 microgram/mL
[5]
  MIC: 0.02 microgram/mL
Escherichia coli JUHL
  MIC: > 100 microgram/mL
[7]
  MIC: 0.1 microgram/mL
[8]; Staphylococcus aureus A5177, BHI agar, 20-24 h
  MIC: 0.78 microgram/mL
[9]; Pseudomonas aeruginosa A5007, BHI agar, 20-24 h
  MIC: > 100 microgram/mL
[10]
  MIC: 0.1 microgram/mL
[12]
  MIC: 1.56 microgram/mL
[13]
  MIC: 0.39 microgram/mL
[14]
  MIC: 0.39 microgram/mL
[15]; Enterobacter aerogenes ATCC 13048, BHI agar, 20-24 h
  MIC: > 100 microgram/mL
[16]; Enterococcus faecium ATCC 8043, BHI agar, 20-24 h
  MIC: 0.2 microgram/mL
[17]
  MIC: 0.05 microgram/mL
[18]; BHI agar
  MIC: 0.1 microgram/mL
[19]; Pseudomonas aeruginosa K799/WT, BHI agar, 20-24 h
  MIC: > 100 microgram/mL
[20]
  MIC: 0.2 microgram/mL
[22]
  MIC: 0.2 microgram/mL
[23]
  MIC: 0.2 microgram/mL
